Laboratory results taken from patent US20230055953A1, “AGENT FOR ADJUVANT THERAPY” (TAIHO PHARMACEUTICAL CO., LTD., priority 2019, published 2023).

Test system: B16F10.A24/SART2^93-101 cells
Experiment: Lung metastatic model: intravenous transplantation of B16F10.A24/SART2^93-101 cells, count of metastatic pulmonary nodules
Type: in vivo, mouse
Conditions: B2m^tm2(HLA-A24/H-2Db/B2M)Tai mice; emulsion with Montanide ISA 51 VG subcutaneously on Day 1, Day 8, Day 15; lungs resected Day 28; compared with control group, p=0.0014, Student's t-test
Procedure: Eleven-week-old B2m^tm2(HLA-A24/H-2Db/B2M)Tai mice (J. Immunol.: 198, 516-527, 2017) were randomly divided into groups each consisting of 10 mice. The day of grouping was designated Day 0.
The B16F10.A24/SART2^93-101 cells (PLoS One: 13, e0199249, 2018) were cultured using the Dulbecco's Modified Eagle's Medium (Sigma-Aldrich) containing 10% FBS. The B16F10.A24/SART2^93-101 cells were subjected to subculture in an incubator at 37° C. in the presence of 5% CO2 two times a week at a ratio of 1:25 to 1:40.
On the day of grouping of mice (Day 0), the B16F10.A24/SART2^93-101 cell suspension prepared using D-PBS (FUJIFILM Wako Pure Chemical Corporation) was transplanted into the tail veins of mice at 1×10^6 cells/0.1 ml.
The mouse models are found to undergo recurrence of tumor cells transplanted into the blood in the lung. Accordingly, such mouse models can be regarded as simulating the recurrence mechanism caused by cancer metastasis in humans. By verifying the effects in such models, accordingly, the inhibitory effects on tumor metastasis and recurrence can be verified. […]
The lungs were resected 28 days after transplantation of the B16F10.A24/SART2^93-101 cells (Day 28), and the number of metastatic pulmonary nodules was visually counted.

Substance: PEP5-RR-PEP9-RR-PEP6-RR-PEP4 (DYSARWNEIRRQIRPIFSNRRRVYDYNCHVDLRRLLQAEAPRL) [TPV06]
- number of metastatic pulmonary nodules: significantly reduced
